“Also recorded” adds a separate entry of the source.

The values below come from patent US7569547B2, “Inhibiting furin with polybasic peptides” (Board of Supervisors of Louisiana State University and …, priority 2001, dated 2009).

In series [1] the test system is HIV. Briefly: Formation of syncytia by HIV in vitro in MT4 T cells. Format: cell-based. Conditions: micromolar concentrations, MT4 line of T cells, preliminary data (not shown). An excerpt:
The administration of polyarginines and other polybasic peptides in accordance with the present invention may be used to combat bacterial and viral infections, and to inhibit the growth of certain cancers. Preliminary data, for example, show activity against Pseudomonas exotoxin, and against HIV.

Series [2] deals with T1, PC2 (Mus musculus, UniProt P21661).
T1 sequence (P21661 109-637): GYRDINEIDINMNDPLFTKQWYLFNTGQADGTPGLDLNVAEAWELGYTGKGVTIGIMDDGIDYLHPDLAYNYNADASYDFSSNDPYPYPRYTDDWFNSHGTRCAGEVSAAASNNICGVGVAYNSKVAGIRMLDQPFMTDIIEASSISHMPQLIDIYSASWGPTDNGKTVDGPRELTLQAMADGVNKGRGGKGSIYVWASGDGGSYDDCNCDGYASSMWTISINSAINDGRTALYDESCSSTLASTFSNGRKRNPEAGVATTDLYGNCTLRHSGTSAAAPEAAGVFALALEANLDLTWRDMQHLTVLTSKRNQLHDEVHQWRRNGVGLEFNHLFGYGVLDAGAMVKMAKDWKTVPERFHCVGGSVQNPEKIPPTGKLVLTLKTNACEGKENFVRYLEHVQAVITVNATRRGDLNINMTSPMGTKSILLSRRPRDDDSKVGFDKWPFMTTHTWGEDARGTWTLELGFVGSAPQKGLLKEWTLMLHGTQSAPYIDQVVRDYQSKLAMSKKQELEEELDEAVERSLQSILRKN
Nature of the series: PC2 enzyme assay, hydrolysis of pERTKR-MCA at pH 5.0. The class given is biochemical. Set-up: made in house. Conditions: data not shown. On the procedure:
The proprotein convertases PC1 and PC2 were prepared by ion exchange chromatography as described in G. Frenette et al., Biochim. Biophys. Acta., vol. 1334, pp. 109-115 (1997).
(§1) Enzyme Assays and Hexapeptide Library Screening. Enzyme assays for PC1 and PC2 were performed at pH 5.0 using pERTKR-MCA (Peptides International Inc., Louisville, Ky.) as described in E. Apletalina et al., J. Biol. Chem., vol. 273, pp. 26589-26595 (1998). The assay for furin was performed using the same substrate at pH 7.0 in 100 mM HEPES, 5 mM CaCl2, 0.1% Brij 35. All assays were performed at 37° C. in a 96 well fluorometer (Labsystems) at an excitation wavelength of 380 nm with emission monitored at a wavelength of 460 nm. The total volume was 50 μL. Unless otherwise stated, the final substrate concentration for all assays was 200 μM. When used in a particular experiment, the inhibitory peptides were pre-incubated with enzyme for 30 min at room temperature prior to addition of substrate. All assays were performed in duplicate or triplicate.

Series [3] has as its system HEK293 cells. Nature of the series: Growth of HEK293 cells monitored with the dye WST (cytotoxicity). Format: cell-based, human. On the procedure: HEK293 cells were seeded into 96-well plates at the densities indicated. Their growth rates were monitored using the dye WST, which is cleaved by mitochondrial dehydrogenases to a […] dye only in viable cells.
Series [4] concerns the target T2, recombinant mouse furin (Mus musculus, UniProt P23188).
T2 construct: truncated N-terminally to the transmembrane domain at His^711 using PCR; myc (C, cleaved yes); hexa-His (C, cleaved yes); made in house; host or cells: DG44 CHO cells, conditioned medium
Nature of the series: Furin enzyme assay, hydrolysis of pERTKR-MCA at pH 7.0. Format: biochemical. Conditions: for type of inhibition of furin (Lineweaver-Burk plots): furin 30 nM, 0, 20 or 40 μM hexapeptide, polyarginines forty-fold lower.
From the text: Recombinant convertase preparation. The mouse furin clone was a kind gift from K. Nakayama (Fukuoka University School of Medicine, Fukuoka, Japan). The mouse furin cDNA was truncated N-terminally to the transmembrane domain at His^711 using PCR. This PCR product was then subcloned into pcDNA3.1 (−) myc-His (Invitrogen) at the Nhe1 and Xba1 restriction sites. Dihydrofolate-reductase-negative DG44 Chinese Hamster Ovary (CHO) cells (L. Chasin, Columbia University, New York, N.Y.) were transfected using Lipofectin (Life Technologies), and colonies were selected at 37° C. in 5% CO2 in α-MEM (lacking nucleosides) containing 10% well-dialyzed fetal bovine serum (Life Technologies). Conditioned media from colonies were screened using an enzyme assay (see below), and a high-expressing clone was selected. Overexpression of furin was achieved by increasing the methotrexate concentration from 5 nM to 50 μM in five- to ten-fold steps as described in I. Lindberg et al., Methods Neurosci., vol. 23, pp. 94-108 (1995). The amplified lines were tested for increased furin expression by enzyme assay. Once the 50 μM methotrexate level had been reached, cells were split at ratios of 1:6 twice a week. 100 mL of conditioned media (OptiMEM, Life Technologies) containing 100 μg/mL aprotinin (Miles Laboratories, Kankakee, Ill.) was collected from confluent roller bottles every 24 h. The medium was then centrifuged at low speed to remove cells, and the supernatant was stored at −80° C. until use.
Purification of furin: Conditioned medium was thawed, pooled, and diluted 1:3.5 with buffer A (20 mM HEPES, 0.1% Brij 35, 5 mM CaCl2, pH 7.4), and pumped at 40 mL/min through a Sartorius D100 anion exchange membrane. The membrane was washed with 40 mL of buffer A, followed by 40 mL of buffer A containing 50 mM NaCl, and finally by 40 mL of buffer A containing 200 mM NaCl. The fraction eluting with 200 mM NaCl was diluted 1:4 with buffer A and applied to a 1 mL Pharmacia Mono Q HR5/5 anion exchange column at a flow rate of 1 mL/min. Following a 10 mL wash with buffer A, furin was eluted by a linear increase of 0 to 500 mM NaCl in buffer A over 30 mL; and 2 mL fractions were collected. Fractions containing peak activity were pooled, and 200 μL aliquots were subjected to gel permeation chromatography using a Pharmacia Superose 12 column at a flow rate of 0.5 mL/min of buffer A containing 200 mM NaCl. Fractions were assayed for activity as described below; protein content was determined using the Bradford method. All purification steps were performed at 4° C.
as §1

T2 sequence (P23188 108-714 limits assumed): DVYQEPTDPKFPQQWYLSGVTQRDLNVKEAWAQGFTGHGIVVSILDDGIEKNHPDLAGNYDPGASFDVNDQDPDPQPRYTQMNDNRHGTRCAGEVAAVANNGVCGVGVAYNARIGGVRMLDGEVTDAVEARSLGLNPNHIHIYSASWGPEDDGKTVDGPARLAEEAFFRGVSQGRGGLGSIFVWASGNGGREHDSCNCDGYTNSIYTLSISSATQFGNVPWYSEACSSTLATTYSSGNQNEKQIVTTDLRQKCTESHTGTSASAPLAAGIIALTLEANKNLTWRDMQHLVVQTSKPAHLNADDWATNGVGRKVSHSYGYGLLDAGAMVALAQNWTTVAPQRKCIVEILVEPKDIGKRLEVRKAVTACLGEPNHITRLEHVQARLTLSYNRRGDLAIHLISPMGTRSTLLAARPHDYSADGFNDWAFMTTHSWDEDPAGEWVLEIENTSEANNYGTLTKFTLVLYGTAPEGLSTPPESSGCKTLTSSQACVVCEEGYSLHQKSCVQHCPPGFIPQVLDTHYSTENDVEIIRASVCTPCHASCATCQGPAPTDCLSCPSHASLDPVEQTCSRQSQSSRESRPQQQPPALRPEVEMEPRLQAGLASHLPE

As to `N=C(N)NCCC[C@@H](NC(=O)[C@H](N)CCCN=C(N)N)C(=O)N[C@H](CCCNC(=N)N)C(=O)N[C@H](CCCNC(=N)N)C(=O)N[C@H](CCCNC(=N)N)C(=O)N[C@H](CCCN=C(N)N)C(=O)O` [Hexa-D-arginine], the “formation of syncytia by HIV” value in series [1] is recorded as “inhibited the formation of syncytia”. In series [2], the “effect on PC2 activity” value is on record as “no stimulatory or inhibitory effect”. Besides, the “mean absorbance at 450 nm (WST)” value is recorded as 0.69 ± 0.02 in series [3] (HEK293, 2 μM D6R, 51 hour); 1.25 ± 0.11 in series [3] (HEK293, 2 μM D6R, 75 hour); 1.42 ± 0.02 in series [3] (HEK293, 2 μM D6R, 99 hour); 0.64 ± 0.03 in series [3] (HEK293, 4 μM D6R, 51 hour); 1.28 ± 0.14 in series [3] (HEK293, 4 μM D6R, 75 hour); 1.39 ± 0.06 in series [3] (HEK293, 4 μM D6R, 99 hour). Also, the “mean absorbance at 450 nm (WST)” value in series [3] (HEK293, 6 μM D6R, 51 hour) amounted to 0.63 ± 0.04; in series [3] (HEK293, 6 μM D6R, 75 hour), 1.13 ± 0.14; in series [3] (HEK293, 6 μM D6R, 99 hour) it was 1.48 ± 0.04; in series [3] (HEK293, 8 μM D6R, 51 hour) it was 0.67 ± 0.01; in series [3] (HEK293, 8 μM D6R, 75 hour), 1.36 ± 0.08; in series [3] (HEK293, 8 μM D6R, 99 hour), 1.40 ± 0.05. Further, the “mean absorbance at 450 nm (WST)” value in series [3] (HEK293, 10 μM D6R, 51 hour) was 0.64 ± 0.03; in series [3] (HEK293, 10 μM D6R, 75 hour), 1.28 ± 0.14; in series [3] (HEK293, 10 μM D6R, 99 hour) it was 1.49 ± 0.08; in series [3] (HEK293, 30 μM D6R, 51 hour), 0.64 ± 0.02; in series [3] (HEK293, 30 μM D6R, 75 hour) it was 1.29 ± 0.08; in series [3] (HEK293, 30 μM D6R, 99 hour) it was 1.45 ± 0.06. In addition, the “mean absorbance at 450 nm (WST)” value in series [3] (HEK293, 60 μM D6R, 51 hour) turned out to be 0.66 ± 0.05; in series [3] (HEK293, 60 μM D6R, 75 hour) it was 1.17 ± 0.08; in series [3] (HEK293, 60 μM D6R, 99 hour), 1.48 ± 0.06; in series [3] (HEK293, 100 μM D6R, 51 hour), 0.62 ± 0.03; in series [3] (HEK293, 100 μM D6R, 75 hour) it was 1.19 ± 0.11; in series [3] (HEK293, 100 μM D6R, 99 hour) it was 1.47 ± 0.09. Moreover, the “effect on growth of the cells” value in series [3] (HEK293 cells, 2-100 μM) is “did not significantly affect the growth of the cells”. For the same molecule, in series [3] (HEK293 cells, up to 100 μM final concentration, preliminary data, listed as D6R), the cytotoxicity entry is “not toxic to cells; also recorded: did not appear to be cytotoxic”. Also, in series [4], the “type of inhibition of furin (Lineweaver-Burk plots)” value (from here on “type of inhibition of furin”) is recorded as “strictly competitive-type inhibition”.

`N=C(N)NCCC[C@H](NC(=O)[C@H](CCCNC(=N)N)NC(=O)[C@H](CCCNC(=N)N)NC(=O)[C@H](CCCNC(=N)N)NC(=O)[C@H](CCCNC(=N)N)NC(=O)[C@@H](N)CCCNC(=N)N)C(=O)O` [Hexa-L-arginine]: the “effect on PC2 activity” value in series [2] is listed as “Stimulates PC2 Activity”. Also, the “type of inhibition of furin” value in series [4] is “strictly competitive-type inhibition”.

As usually defined, the Ki is the equilibrium dissociation constant of an inhibitor or competing ligand from its target. For `N=C(N)NCCC[C@H](NC(=O)[C@H](CCCNC(=N)N)NC(=O)[C@H](CCCNC(=N)N)NC(=O)[C@H](CCCNC(=N)N)NC(=O)[C@H](CCCNC(=N)N)NC(=O)[C@H](CCCNC(=N)N)NC(=O)[C@H](CCCNC(=N)N)NC(=O)[C@H](CCCNC(=N)N)NC(=O)[C@@H](N)CCCNC(=N)N)C(=O)O` [Nona-L-arginine], in series [4], the Ki amounted to 42 nM and the “type of inhibition of furin” value is listed as “strictly competitive-type inhibition”.
